{"source": "ChEMBL document CHEMBL4152252", "about": "“Fluorine walk: The impact of fluorine in quinolone amides on their activity against African sleeping sickness” (Eur J Med Chem, 2018)", "key": {"[1]": {"tested_on": "Trypanosoma brucei brucei", "experiment": "Antitrypanosomal activity against trypomastigote forms of Trypanosoma brucei brucei TC 221 assessed as parasite growth inhibition after 48 hrs by Alamar blue assay", "format": "functional, organism-based", "details": "TC 221, 48 h"}, "[2]": {"tested_on": "Trypanosoma brucei brucei", "experiment": "Antitrypanosomal activity against trypomastigote forms of Trypanosoma brucei brucei TC 221 assessed as parasite growth inhibition after 72 hrs by Alamar blue assay", "format": "functional, organism-based", "details": "TC 221, 72 h"}, "[3]": {"experiment": "Cytotoxicity against mouse J774.1 cells after 24 hrs by Alamar blue assay", "format": "cell-based"}, "[4]": {"experiment": "Selectivity index, ratio of CC50 for mouse J774.1 cells to IC50 for trypomastigote forms of Trypanosoma brucei brucei TC 221 assessed as parasite growth inhibition after 48 hrs", "format": "toxicity", "details": "read-out: Ratio CC50/IC50"}, "[5]": {"experiment": "Half life in rat liver cytosol", "format": "ADME, subcellular"}, "[6]": {"experiment": "Octanol/water partition co-efficient, log P of the compound by HPLC based method", "format": "physicochemical"}, "[7]": {"experiment": "Drug metabolism in rat liver microsomes assessed as CYP450-mediated 6-fluoro-3-(4-fluorobenzylcarbamoyl)-1-(3-hydroxybutyl)-7-morpholino-4-oxo-1,4-dihydroquinolinium formation at 100 uM using NADPH/H+ as co-factor after 30 to 90 mins by LC/MSD iom trap method", "format": "ADME"}, "[8]": {"experiment": "Drug metabolism in rat liver microsomes assessed as CYP450-mediated 6-fluoro-3-(4-fluorobenzylcarbamoyl)-7-morpholino-4-oxo-1,4-dihydroquinolinium formation at 100 uM using NADPH/H+ as co-factor after 30 to 90 mins by LC/MSD iom trap method", "format": "ADME"}, "[9]": {"experiment": "Drug metabolism in rat liver microsomes assessed as CYP450-mediated 1-butyl-3-carboxy-6-fluoro-7-morpholino-4-oxo-1,4-dihydroquinolinium formation at 100 uM using NADPH/H+ as co-factor after 30 to 90 mins by LC/MSD iom trap method", "format": "ADME"}, "[10]": {"experiment": "Drug metabolism in rat liver microsomes assessed as CYP450-mediated 6-fluoro-3-(4-fluorobenzylcarbamoyl)-1-methyl-7-morpholino-4-oxo-1,4-dihydroquinolinium formation at 100 uM using NADPH/H+ as co-factor after 30 to 90 mins by LC/MSD iom trap method", "format": "ADME"}, "[11]": {"experiment": "Drug metabolism in rat liver cytosol assessed as CYP450-mediated 6-fluoro-3-(4-fluorobenzylcarbamoyl)-1-(3-hydroxybutyl)-7-morpholino-4-oxo-1,4-dihydroquinolinium formation at 100 uM using NADPH/H+ as co-factor after 30 to 90 mins by LC/MSD iom trap method", "format": "ADME, subcellular"}, "[12]": {"experiment": "Drug metabolism in rat liver cytosol assessed as CYP450-mediated 6-fluoro-3-(4-fluorobenzylcarbamoyl)-7-morpholino-4-oxo-1,4-dihydroquinolinium formation at 100 uM using NADPH/H+ as co-factor after 30 to 90 mins by LC/MSD iom trap method", "format": "ADME, subcellular"}, "[13]": {"experiment": "Drug metabolism in rat liver cytosol assessed as CYP450-mediated 1-butyl-3-carboxy-6-fluoro-7-morpholino-4-oxo-1,4-dihydroquinolinium formation at 100 uM using NADPH/H+ as co-factor after 30 to 90 mins by LC/MSD iom trap method", "format": "ADME, subcellular"}, "[14]": {"experiment": "Drug metabolism in rat liver cytosol assessed as CYP450-mediated 6-fluoro-3-(4-fluorobenzylcarbamoyl)-1-methyl-7-morpholino-4-oxo-1,4-dihydroquinolinium formation at 100 uM using NADPH/H+ as co-factor after 30 to 90 mins by LC/MSD iom trap method", "format": "ADME, subcellular"}, "[15]": {"experiment": "Solubility of the compound in RPMI-1640 medium", "format": "physicochemical"}, "[16]": {"experiment": "Stability in rat liver cytosol assessed as compound turnover per mg protein", "format": "ADME, subcellular"}, "[17]": {"experiment": "Drug metabolism in rat liver microsomes assessed as CYP450-mediated 5-fluoro-3-(4-fluorobenzylcarbamoyl)-1-(3-hydroxybutyl)-7-morpholino-4-oxo-1,4-dihydroquinolinium formation at 100 uM using NADPH/H+ as co-factor after 30 to 90 mins by LC/MSD iom trap method", "format": "ADME"}, "[18]": {"experiment": "Drug metabolism in rat liver microsomes assessed as CYP450-mediated 5-fluoro-3-(4-fluorobenzylcarbamoyl)-7-morpholino-4-oxo-1,4-dihydroquinolinium formation at 100 uM using NADPH/H+ as co-factor after 30 to 90 mins by LC/MSD iom trap method", "format": "ADME"}, "[19]": {"experiment": "Drug metabolism in rat liver microsomes assessed as CYP450-mediated 1-butyl-3-carboxy-5-fluoro-7-morpholino-4-oxo-1,4-dihydroquinolinium formation at 100 uM using NADPH/H+ as co-factor after 30 to 90 mins by LC/MSD iom trap method", "format": "ADME"}, "[20]": {"experiment": "Drug metabolism in rat liver microsomes assessed as CYP450-mediated 5-fluoro-3-(4-fluorobenzylcarbamoyl)-1-methyl-7-morpholino-4-oxo-1,4-dihydroquinolinium formation at 100 uM using NADPH/H+ as co-factor after 30 to 90 mins by LC/MSD iom trap method", "format": "ADME"}, "[21]": {"experiment": "Drug metabolism in rat liver cytosol assessed as CYP450-mediated 5-fluoro-3-(4-fluorobenzylcarbamoyl)-1-(3-hydroxybutyl)-7-morpholino-4-oxo-1,4-dihydroquinolinium formation at 100 uM using NADPH/H+ as co-factor after 30 to 90 mins by LC/MSD iom trap method", "format": "ADME, subcellular"}, "[22]": {"experiment": "Drug metabolism in rat liver cytosol assessed as CYP450-mediated 5-fluoro-3-(4-fluorobenzylcarbamoyl)-7-morpholino-4-oxo-1,4-dihydroquinolinium formation at 100 uM using NADPH/H+ as co-factor after 30 to 90 mins by LC/MSD iom trap method", "format": "ADME, subcellular"}, "[23]": {"experiment": "Drug metabolism in rat liver cytosol assessed as CYP450-mediated 1-butyl-3-carboxy-5-fluoro-7-morpholino-4-oxo-1,4-dihydroquinolinium formation at 100 uM using NADPH/H+ as co-factor after 30 to 90 mins by LC/MSD iom trap method", "format": "ADME, subcellular"}, "[24]": {"experiment": "Drug metabolism in rat liver cytosol assessed as CYP450-mediated 5-fluoro-3-(4-fluorobenzylcarbamoyl)-1-methyl-7-morpholino-4-oxo-1,4-dihydroquinolinium formation at 100 uM using NADPH/H+ as co-factor after 30 to 90 mins by LC/MSD iom trap method", "format": "ADME, subcellular"}}}
{"smiles": "CCCCn1cc(C(=O)NCc2ccc(F)cc2)c(=O)c2cc(F)c(N3CCOCC3)cc21", "values": [{"measurement": "IC50", "setting": "[1]", "value": 50, "unit": "nM"}, {"measurement": "IC50", "setting": "[2]", "value": 90, "unit": "nM"}, {"measurement": "CC50 at 24 h", "setting": "[3]", "value": "> 20000", "unit": "nM"}, {"measurement": "selectivity ratio at 48 h", "setting": "[4]", "value": "> 400"}, {"measurement": "half-life", "setting": "[5]", "value": 6.4, "unit": "h"}, {"measurement": "logP", "setting": "[6]", "value": 4.13}, {"measurement": "Drug metabolism", "setting": "[7]", "value": "Metabolite_Detected"}, {"measurement": "Drug metabolism", "setting": "[8]", "value": "Metabolite_Detected"}, {"measurement": "Drug metabolism", "setting": "[9]", "value": "Metabolite_Detected"}, {"measurement": "Drug metabolism", "setting": "[10]", "value": "Metabolite_Detected"}, {"measurement": "Drug metabolism", "setting": "[11]", "value": "Metabolite_Detected"}, {"measurement": "Drug metabolism", "setting": "[12]", "value": "Metabolite_Detected"}, {"measurement": "Drug metabolism", "setting": "[13]", "value": "Metabolite_Detected"}, {"measurement": "Drug metabolism", "setting": "[14]", "value": "Metabolite_Detected"}, {"measurement": "solubility", "setting": "[15]", "value": "Insoluble"}]}
{"smiles": "CCCCn1cc(C(=O)NCc2ccc(F)cc2)c(=O)c2c(F)cc(N3CCOCC3)cc21", "values": [{"measurement": "IC50", "setting": "[1]", "value": 20, "unit": "nM"}, {"measurement": "IC50", "setting": "[2]", "value": 20, "unit": "nM"}, {"measurement": "CC50 at 24 h", "setting": "[3]", "value": "> 25000", "unit": "nM"}, {"measurement": "selectivity ratio at 48 h", "setting": "[4]", "value": "> 1250"}, {"measurement": "half-life", "setting": "[5]", "value": 7.7, "unit": "h"}, {"measurement": "Drug metabolism", "setting": "[16]", "value": 3.89, "unit": "pmol/min/mg protein"}, {"measurement": "logP", "setting": "[6]", "value": 3.41}, {"measurement": "Drug metabolism", "setting": "[17]", "value": "Metabolite_Detected"}, {"measurement": "Drug metabolism", "setting": "[18]", "value": "Metabolite_Detected"}, {"measurement": "Drug metabolism", "setting": "[19]", "value": "Metabolite_Detected"}, {"measurement": "Drug metabolism", "setting": "[20]", "value": "Metabolite_Detected"}, {"measurement": "Drug metabolism", "setting": "[21]", "value": "Metabolite_Detected"}, {"measurement": "Drug metabolism", "setting": "[22]", "value": "Metabolite_Detected"}, {"measurement": "Drug metabolism", "setting": "[23]", "value": "Metabolite_Detected"}, {"measurement": "Drug metabolism", "setting": "[24]", "value": "Metabolite_Detected"}, {"measurement": "solubility", "setting": "[15]", "value": "Insoluble"}]}
